Bounds are passed on as bounds.

This assay concerns the target T1, ZAP-70 (Homo sapiens, UniProt P43403).
T1 sequence (P43403 1-619): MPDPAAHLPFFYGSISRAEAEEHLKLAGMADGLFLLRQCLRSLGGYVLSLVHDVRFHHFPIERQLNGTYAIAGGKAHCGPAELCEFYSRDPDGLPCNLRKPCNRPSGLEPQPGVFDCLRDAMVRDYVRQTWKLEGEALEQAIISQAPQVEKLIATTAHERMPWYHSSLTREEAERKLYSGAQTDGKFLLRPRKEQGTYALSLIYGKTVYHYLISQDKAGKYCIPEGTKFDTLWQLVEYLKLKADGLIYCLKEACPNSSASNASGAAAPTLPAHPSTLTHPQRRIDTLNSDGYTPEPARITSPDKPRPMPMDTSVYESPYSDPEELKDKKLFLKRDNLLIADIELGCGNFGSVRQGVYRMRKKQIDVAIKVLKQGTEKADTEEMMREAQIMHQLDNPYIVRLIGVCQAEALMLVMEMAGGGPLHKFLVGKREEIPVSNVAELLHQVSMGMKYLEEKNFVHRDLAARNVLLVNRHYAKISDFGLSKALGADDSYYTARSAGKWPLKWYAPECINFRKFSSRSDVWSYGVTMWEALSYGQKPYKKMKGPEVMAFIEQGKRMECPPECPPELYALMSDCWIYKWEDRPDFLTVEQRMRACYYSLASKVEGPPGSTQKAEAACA
The assay can be described thus: DELFIA assay (ZAP-70 kinase, phosphorylation of biotinylated poly(glu,tyr)). The class given is biochemical. The following applies: ZAP-70 DELFIA, class symbols; read-out: Activity (IC50 in vitro). On the procedure: Before initiation of kinase reactions, compounds were pre-incubated with ZAP-70. Pre-incubation reactions contained 62.5 mM Mops pH 7.0, 12.5 mM MgCl2, 12.5% glycerol, 3.1 nM ZAP-70, 62.5 nM biotinylated poly(glu,Tyr), 0.1 mg/ml BSA, 6.25% DMSO and […] compound in a total volume of […]. After a 10 minute room temperature incubation, 10 ml of 5 mM ATP was added to start the reaction. Reactions were incubated at room temperature for 30 minutes then terminated by addition of 5 ml 500 mM EDTA. The amount of phosphate transferred to biotinylated poly(glu,tyr) was measured using the Dissociation Enhanced Lanthanide Fluorescence Immuno-assay (DELFIA) from Perkin Elmer according to manufacturers protocol. Briefly, biotinylated […] was captured on streptavidin coated plates, washed twice, then incubated with Europium labeled-anti-phosphotyrosine antibody. Free antibody was removed with six washes, Europium was dissociated from the antibody, and Europium fluorescence was measured at using an excitation wavelength of 340 nm and an emission wavelength of 615 nm.
Consider `O=C(c1cc(Cl)nc2ccc(-c3ccc4c(c3)OCO4)cc12)N1CCC[C@H]1CN1CCCC1` [Compound 1], for which the IC50 (as a rule, the midpoint of a concentration-inhibition curve) was in the range of 1 to 10 µM.
As for `O=C(c1cc(NC2CC2)nc2ccc(-c3ccc4c(c3)OCO4)cc12)N1CCC[C@H]1CN1CCCC1` [Compound 2], the figure is 1 to 10 µM.
On to `O=C(c1cc(Cl)nc2ccccc12)N1CCC[C@H]1CN1CCCC1` [Compound 3], for which the IC50 was above 10 µM.
As for `O=C(c1cc(NCc2ccccc2)nc2ccc(-c3ccc4c(c3)OCO4)cc12)N1CCC[C@H]1CN1CCCC1` [Compound 4], the figure is below 1 µM; as for `O=C(c1cc(N2CCOCC2)nc2ccc(-c3ccc4c(c3)OCO4)cc12)N1CCC[C@H]1CN1CCOCC1` [Compound 5], 1 to 10 µM.
Turning to `COc1cc(C(=O)N2CCC[C@H]2CN2CCCC2)cc(-c2ccc3c(c2)OCO3)n1` [Compound 6], the IC50 is above 10 µM.
Then `COc1cc(C(=O)N2CCC[C@H]2CN2CCCC2)cc(NCc2ccccc2)n1` [Compound 7], with above 10 µM; and `O=C(c1cc(Nc2ccc3c(c2)OCO3)nc2ccccc12)N1CCC[C@H]1CN1CCCC1` [Compound 8], with above 10 µM; and `O=C(c1cc(NC2CC2)nc2ccccc12)N1CCC[C@H]1CN1CCCC1` [Compound 9], with above 10 µM.
As for `O=C(c1cc(Nc2ccc3cn[nH]c3c2)nc2ccccc12)N1CCC[C@H]1CN1CCCC1` [Compound 10], the figure is above 10 µM; as for `Nc1cc(C(=O)N2CCC[C@H]2CN2CCCC2)c2cc(-c3ccc4c(c3)OCO4)ccc2n1` [Compound 11], 1 to 10 µM.
As to `CN(Cc1ccccc1)c1cc(C(=O)N2CCC[C@H]2CN2CCCC2)c2cc(-c3ccc4c(c3)OCO4)ccc2n1` [Compound 12], the IC50 is below 1 µM.
As for `O=C(c1cc(Nc2ccccc2)nc2ccc(-c3ccc4c(c3)OCO4)cc12)N1CCC[C@H]1CN1CCCC1` [Compound 13], the IC50 is below 1 µM.
Then `O=C(c1cc(NCc2ccccc2)nc2ccccc12)N1CCC[C@H]1CN1CCCC1` [Compound 14], with above 10 µM; and `COc1ccc(Nc2cc(C(=O)N3CCC[C@H]3CN3CCCC3)c3cc(-c4ccc5c(c4)OCO5)ccc3n2)cc1` [Compound 15], with below 1 µM; and `O=C(c1cc(Nc2ccc(F)cc2)nc2ccc(-c3ccc4c(c3)OCO4)cc12)N1CCC[C@H]1CN1CCCC1` [Compound 16], with below 1 µM.
For `COc1cccc(Nc2cc(C(=O)N3CCC[C@H]3CN3CCCC3)c3cc(-c4ccc5c(c4)OCO5)ccc3n2)c1` [Compound 17], the concentration for half-maximal inhibition (IC50) is below 1 µM.
Regarding `O=C(c1cc(Nc2cccc(Br)c2)nc2ccc(-c3ccc4c(c3)OCO4)cc12)N1CCC[C@H]1CN1CCCC1` [Compound 18], the concentration for half-maximal inhibition (IC50) was below 1 µM.
Take `O=C(c1cc(Nc2ccccn2)nc2ccc(-c3ccc4c(c3)OCO4)cc12)N1CCC[C@H]1CN1CCCC1` [Compound 19]: the IC50 is below 1 µM.
Then `CN(C)C[C@@H]1CCCN1C(=O)c1cc(N(C)C)nc2ccc(-c3ccc4c(c3)OCO4)cc12` [Compound 20], with above 10 µM; and `O=C(c1cc(NCc2ccccc2)nc2ccc(-c3ccc4c(c3)OCO4)cc12)N1CCC[C@H]1CNCc1ccccc1` [Compound 21], with above 10 µM; and `O=C(c1cc(Oc2ccccc2)nc2ccc(-c3ccc4c(c3)OCO4)cc12)N1CCC[C@H]1CN1CCCC1` [Compound 22], with below 1 µM.
Regarding `O=C(c1cc(OCc2ccccc2)nc2ccc(-c3ccc4c(c3)OCO4)cc12)N1CCC[C@H]1CN1CCCC1` [Compound 23], the IC50 is below 1 µM.
As for `O=C(c1cc(NC2CCCCC2)nc2ccc(-c3ccc4c(c3)OCO4)cc12)N1CCC[C@H]1CN1CCCC1` [Compound 24], the figure is below 1 µM; as for `O=C(c1cc(Cc2ccccc2)nc2ccc(-c3ccc4c(c3)OCO4)cc12)N1CCC[C@H]1CN1CCCC1` [Compound 25], below 1 µM.
Then `O=C(c1cc(NCCN2CCOCC2)nc2ccc(-c3ccc4c(c3)OCO4)cc12)N1CCC[C@H]1CN1CCCC1` [Compound 26], with above 10 µM; and `O=C(c1cc(NCC2CCCCC2)nc2ccc(-c3ccc4c(c3)OCO4)cc12)N1CCC[C@H]1CN1CCCC1` [Compound 27], with below 1 µM.
Take `O=C(c1cc(NC2CCCC2)nc2ccc(-c3ccc4c(c3)OCO4)cc12)N1CCC[C@H]1CN1CCCC1` [Compound 28]: the IC50 is above 10 µM.
Take `O=C(c1cc(NC2Cc3ccccc3C2)nc2ccc(-c3ccc4c(c3)OCO4)cc12)N1CCC[C@H]1CN1CCCC1` [Compound 29]: the IC50 was 1 to 10 µM.
As for `O=C(c1cc(NCc2ccc(F)cc2)nc2ccc(-c3ccc4c(c3)OCO4)cc12)N1CCC[C@H]1CN1CCCC1` [Compound 30], the figure is below 1 µM; as for `O=C(c1cc(NCc2cccc(F)c2)nc2ccc(-c3ccc4c(c3)OCO4)cc12)N1CCC[C@H]1CN1CCCC1` [Compound 31], below 1 µM; as for `O=C(c1cc(NCCN2CCCCC2)nc2ccc(-c3ccc4c(c3)OCO4)cc12)N1CCC[C@H]1CN1CCCC1` [Compound 32], above 10 µM.
Turning to `O=C(c1cc(NCc2ccccn2)nc2ccc(-c3ccc4c(c3)OCO4)cc12)N1CCC[C@H]1CN1CCCC1` [Compound 33], the IC50 was in the range of 1 to 10 µM.
As for `O=C(c1cc(NCc2cccnc2)nc2ccc(-c3ccc4c(c3)OCO4)cc12)N1CCC[C@H]1CN1CCCC1` [Compound 34], the figure is 1 to 10 µM.
As for `O=C(c1cc(NCc2ccc(Cl)cc2)nc2ccc(-c3ccc4c(c3)OCO4)cc12)N1CCC[C@H]1CN1CCCC1` [Compound 35], the figure is below 1 µM; as for `O=C(c1cc(NCc2ccccc2Cl)nc2ccc(-c3ccc4c(c3)OCO4)cc12)N1CCC[C@H]1CN1CCCC1` [Compound 36], below 1 µM.
Then `O=C(c1cc(NCCc2ccccc2)nc2ccc(-c3ccc4c(c3)OCO4)cc12)N1CCC[C@H]1CN1CCCC1` [Compound 37], with below 1 µM.
On to `O=C(c1cc(NCc2ccncc2)nc2ccc(-c3ccc4c(c3)OCO4)cc12)N1CCC[C@H]1CN1CCCC1` [Compound 38], for which the IC50 fell in the range of 1 to 10 µM.
In the case of `O=C(c1cc(NC2CCC2)nc2ccc(-c3ccc4c(c3)OCO4)cc12)N1CCC[C@H]1CN1CCCC1` [Compound 39], the IC50 was 1 to 10 µM.
Regarding `O=C(c1cc(NCc2ccc(F)c(Cl)c2)nc2ccc(-c3ccc4c(c3)OCO4)cc12)N1CCC[C@H]1CN1CCCC1` [Compound 40], the half-inhibitory concentration (IC50) was below 1 µM.
Consider `O=C(c1cc(N[C@H]2CCc3ccccc32)nc2ccc(-c3ccc4c(c3)OCO4)cc12)N1CCC[C@H]1CN1CCCC1` [Compound 41], for which the IC50 was below 1 µM.
As for `O=C(c1cc(N[C@@H]2CCc3ccccc32)nc2ccc(-c3ccc4c(c3)OCO4)cc12)N1CCC[C@H]1CN1CCCC1` [Compound 42], the figure is 1 to 10 µM; as for `CCC(Nc1cc(C(=O)N2CCC[C@H]2CN2CCCC2)c2cc(-c3ccc4c(c3)OCO4)ccc2n1)c1ccccc1` (some centres unmarked) [Compound 43], below 1 µM; as for `O=C(c1cc(NCc2ccc(C(F)(F)F)cc2)nc2ccc(-c3ccc4c(c3)OCO4)cc12)N1CCC[C@H]1CN1CCCC1` [Compound 44], below 1 µM.
For `O=C(c1cc(NCCc2ccc(Cl)cc2Cl)nc2ccc(-c3ccc4c(c3)OCO4)cc12)N1CCC[C@H]1CN1CCCC1` [Compound 45], the IC50 was below 1 µM.
`O=C(c1cc(NCc2ccc(F)cc2F)nc2ccc(-c3ccc4c(c3)OCO4)cc12)N1CCC[C@H]1CN1CCCC1` [Compound 46]: the IC50 is below 1 µM.
In the case of `C[C@@H](O)CNc1cc(C(=O)N2CCC[C@H]2CN2CCCC2)c2cc(-c3ccc4c(c3)OCO4)ccc2n1` [Compound 47], the IC50 fell in the range of 1 to 10 µM.
With `O=C(c1cc(N[C@@H]2c3ccccc3C[C@@H]2O)nc2ccc(-c3ccc4c(c3)OCO4)cc12)N1CCC[C@H]1CN1CCCC1` [Compound 48], the IC50 lay in the range of 1 to 10 µM.
In the case of `O=C(c1cc(NCCc2c[nH]cn2)nc2ccc(-c3ccc4c(c3)OCO4)cc12)N1CCC[C@H]1CN1CCCC1` [Compound 49], the IC50 was 1 to 10 µM.
As to `O=C(c1cc(NCc2cccs2)nc2ccc(-c3ccc4c(c3)OCO4)cc12)N1CCC[C@H]1CN1CCCC1` [Compound 50], the half-inhibitory concentration (IC50) was below 1 µM.
Turning to `O=C(c1cc(Nc2ccc(Oc3ccccc3)cc2)nc2ccc(-c3ccc4c(c3)OCO4)cc12)N1CCC[C@H]1CN1CCCC1` [Compound 51], the IC50 was below 1 µM.
Then `O=C(c1cc(Nc2ccc(Cl)cc2)nc2ccc(-c3ccc4c(c3)OCO4)cc12)N1CCC[C@H]1CN1CCCC1` [Compound 52], with below 1 µM.
In the case of `O=C(c1cc(Nc2ccc3c(c2)OCO3)nc2ccc(-c3ccc4c(c3)OCO4)cc12)N1CCC[C@H]1CN1CCCC1` [Compound 53], the IC50 was below 1 µM.
